Source: patent publication US10383859B2, “Benzo[d]thiazole derivative or salt thereof, and pharmaceutical composition including same” (Yuhan Corporation, priority 2016, dated 2019)
pIC50: −log10 of the molar value.

system: A549 cells; experiment: Cell migration assay (24-well transwell, laminin); assay type: cell-based, human; conditions: Homo sapiens, A549, 6 h, laminin 10 μg/mL in lower well, test compounds 0.39˜100 μM, migrated cells counted, read-out: Inhibitory activity against cell migration
Experimental: Cell migration was measured with a 24-well transwell having a polycarbonate membrane (8.0 μm pore size, Costar) at the bottom of the upper chamber. Each lower well was treated with laminin (10 μg/mL) and test compounds in predetermined concentrations (0.39˜100 μM) along with a serum-free RPMI1640 medium. A549 cells (Korean Cell Line Bank) were suspended in a serum-free RPMI1640 medium at a concentration of 1×10^6 cells/mL and then the test compounds were added thereto at the indicated concentrations. Each resulting solution (100 μL) was added to the upper chamber. The cells were cultured at 37° C. for 6 hours in a CO2 incubator. The upper chamber was taken out and then the cells were fixed with PBS containing 70% methyl alcohol for 10 minutes, followed by washing with PBS twice. The cells were stained with hematoxylin (Sigma) for 10 minutes and then washed with distilled water. The non-migrated cells were removed from the upper portion of the polycarbonate membrane with a cotton swab. The membranes were excised and separated from the chamber, and then mounted to a slide using a gel mount reagent (Biomeda, USA). The migrated cells (attached to the lower face of the membrane) were counted at three randomly selected sites under a microscope (×20). The cell counting was performed with the Image J program. From the counted cell numbers, each IC50 value was calculated by non-linear regression curve fit using the “GraphPad Prism” program.
The cells are pulled by laminin residing in the lower chamber and then passed through the polycarbonate membrane, so as to attach to the lower face of the membrane.

Compound	pIC50
COc1ccc(CCN(Cc2ccc(C(=O)O)cc2)c2nc3cc(Br)ccc3s2)cc1 [Example 91, 4-({(5-bromo-benzo[d]thiazol-2-yl)[2-(4-methoxyphenyl)ethyl]amino}methyl)benzoic acid]	> 6.00
COc1ccc(CCN(Cc2ccc(C(=O)O)cc2)c2nc3cccc(F)c3s2)cc1OC [Example 15, 4-({[2-(3,4-dimethoxyphenyl)ethyl](7-fluorobenzo[d]thiazol-2-yl)amino}methyl)benzoic acid]	> 6.00
COc1ccc(CCN(c2nc3ccc(Br)cc3s2)C(C)c2ccc(C(=O)O)cc2)cc1 (centres unmarked) [Example 116, 4-(1-{(6-bromo-benzo[d]thiazol-2-yl)[2-(4-methoxyphenyl)ethyl]amino}ethyl)benzoic acid]	< 5.00
COc1ccc(CCN(c2nc3cc(C)ccc3s2)C(C)c2ccc(C(=O)O)cc2)cc1 (centres unmarked) [Example 112, 4-(1-{[2-(4-methoxyphenyl)ethyl](5-methyl-benzo[d]thiazol-2-yl)amino}ethyl)benzoic acid]	< 5.00
COc1cc(F)c(CCN(c2nc3cccc(F)c3s2)C(C)c2ccc(C(=O)O)cc2)cc1F (centres unmarked) [Example 61, 4-(1-{[2-(2,5-difluoro-4-methoxyphenyl)ethyl](7-fluorobenzo[d]thiazol-2-yl)amino}ethyl)benzoic acid]	> 6.00
COc1cc(C)c(CCN(c2nc3cccc(F)c3s2)C(C)c2ccc(C(=O)O)cc2)cc1C (centres unmarked) [Example 64, 4-(1-{(7-fluorobenzo[d]thiazol-2-yl)[2-(4-methoxy-2,5-dimethylphenyl)ethyl]amino}ethyl)benzoic acid]	> 6.00
COc1ccc(CCN(Cc2ccc(C(=O)O)cc2)c2nc3cccc(F)c3s2)cc1F [Example 28, 4-({(7-fluorobenzo[d]thiazol-2-yl)[2-(3-fluoro-4-methoxyphenyl)ethyl]amino}methyl)benzoic acid]	> 6.00
O=C(O)c1ccc(CN(CCc2cc(F)ccc2F)c2nc3cccc(F)c3s2)cc1 [Example 35, 4-({[2-(2,5-difluorophenyl)ethyl](7-fluorobenzo[d]thiazol-2-yl)amino}methyl)benzoic acid]	< 5.00
COc1ccc(CCN(c2nc3cc(F)cc(F)c3s2)C(C)c2ccc(C(=O)O)cc2)cc1F (centres unmarked) [Example 122, 4-(1-{(5,7-difluorobenzo[d]thiazol-2-yl)[2-(3-fluoro-4-methoxyphenyl)ethyl]amino}ethyl)benzoic acid]	> 6.00
O=C(O)c1ccc(CN(CCc2ccc(Cl)cc2)c2nc3cccc(F)c3s2)cc1 [Example 4, 4-{[[2-(4-chlorophenyl)ethyl](7-fluorobenzo[d]thiazol-2-yl)amino]methyl}benzoic acid]	5.00 to 6.00
CCC(c1ccc(C(=O)O)cc1)N(CCc1cc(C(C)C)c(OC)cc1C)c1nc2cccc(F)c2s1 (centres unmarked) [Example 76, 4-{1-[(7-fluorobenzo[d]thiazol-2-yl){2-[4-methoxy-2-methyl-5-(propan-2-yl)phenyl]ethyl}amino]propyl}benzoic acid]	< 5.00
CCOc1ccc(CCN(Cc2ccc(C(=O)O)cc2)c2nc3cccc(F)c3s2)cc1OC [Example 25, 4-({[2-(4-ethoxy-3-methoxyphenyl)ethyl](7-fluorobenzo[d]thiazol-2-yl)amino}methyl)benzoic acid]	< 5.00
CC(c1ccc(C(=O)O)cc1)N(CCc1cc(F)c(F)c(F)c1)c1nc2cccc(F)c2s1 (centres unmarked) [Example 58, 4-(1-{(7-fluorobenzo[d]thiazol-2-yl)[2-(3,4,5-trifluorophenyl)ethyl]amino}ethyl)benzoic acid]	< 5.00
COc1ccc(CCN(c2nc3cccc(C(F)(F)F)c3s2)C(C)c2ccc(C(=O)O)cc2)cc1 (centres unmarked) [Example 106, 4-(1-{[2-(4-methoxyphenyl)ethyl][7-(trifluoromethyl)-benzo[d]thiazol-2-yl]amino}ethyl)benzoic acid]	< 5.00
COc1ccc(CCN(c2nc3cc(Br)ccc3s2)C(C)c2ccc(C(=O)O)cc2)cc1 (centres unmarked) [Example 103, 4-(1-{(5-bromo-benzo[d]thiazol-2-yl)[2-(4-methoxyphenyl)ethyl]amino}ethyl)benzoic acid]	< 5.00
COc1ccc(CCN(c2nc3cccc(F)c3s2)C(C)c2ccc(C(=O)O)cc2)cc1 (centres unmarked) [Example 52, 4-(1-{(7-fluorobenzo[d]thiazol-2-yl)[2-(4-methoxyphenyl)ethyl]amino}ethyl)benzoic acid]	> 6.00
CC(C)COc1ccc(CCN(Cc2ccc(C(=O)O)cc2)c2nc3cccc(F)c3s2)cc1 [Example 18, 4-({(7-fluorobenzo[d]thiazol-2-yl)[2-(4-isobutoxyphenyl)ethyl]amino}methyl)benzoic acid]	5.00 to 6.00
CCC(c1ccc(C(=O)O)cc1)N(CCc1ccc(OC)cc1)c1nc2cccc(F)c2s1 (centres unmarked) [Example 53, 4-(1-{(7-fluorobenzo[d]thiazol-2-yl)[2-(4-methoxyphenyl)ethyl]amino}propyl)benzoic acid]	> 6.00
CCC(c1ccc(C(=O)O)cc1)N(CCc1ccc(OC)c(C)c1)c1nc2cccc(F)c2s1 (centres unmarked) [Example 73, 4-(1-{(7-fluorobenzo[d]thiazol-2-yl)[2-(4-methoxy-3-methylphenyl)ethyl]amino}propyl)benzoic acid]	< 5.00

Second part, the compound after the results:

pIC50	Compound
5.00 to 6.00	COc1ccc(CCN(Cc2ccc(C(=O)O)cc2)c2nc3cccc(F)c3s2)c(OC)c1 [Example 27, 4-({[2-(2,4-dimethoxyphenyl)ethyl](7-fluorobenzo[d]thiazol-2-yl)amino}methyl)benzoic acid]
> 6.00	COc1ccc(CCN(Cc2ccc(C(=O)O)cc2)c2nc3cccc(N)c3s2)cc1 [Example 82, 4-({(7-amino-benzo[d]thiazol-2-yl)[2-(4-methoxyphenyl)ethyl]amino}methyl)benzoic acid]
> 6.00	CCC(c1ccc(C(=O)O)cc1)N(CCc1ccc(OC)c(F)c1F)c1nc2cccc(F)c2s1 (centres unmarked) [Example 68, 4-(1-{[2-(2,3-difluoro-4-methoxyphenyl)ethyl](7-fluorobenzo[d]thiazol-2-yl)amino}propyl)benzoic acid]
< 5.00	CC(c1ccc(C(=O)O)cc1)N(CCc1ccc(Cl)cc1Cl)c1nc2cccc(F)c2s1 (centres unmarked) [Example 59, 4-(1-{[2-(2,4-dichlorophenyl)ethyl](7-fluorobenzo[d]thiazol-2-yl)amino}ethyl)benzoic acid]
< 5.00	COc1ccc(CCN(c2nc3ccc(C)cc3s2)C(C)c2ccc(C(=O)O)cc2)cc1 (centres unmarked) [Example 111, 4-(1-{[2-(4-methoxyphenyl)ethyl](6-methyl-benzo[d]thiazol-2-yl)amino}ethyl)benzoic acid]
< 5.00	O=C(O)c1ccc(CN(CCc2ccccc2F)c2nc3cccc(F)c3s2)cc1 [Example 41, 4-({(7-fluorobenzo[d]thiazol-2-yl)[2-(2-fluorophenyl)ethyl]amino}methyl)benzoic acid]
< 5.00	COc1ccccc1CCN(Cc1ccc(C(=O)O)cc1)c1nc2cccc(F)c2s1 [Example 16, 4-({(7-fluorobenzo[d]thiazol-2-yl)[2-(2-methoxyphenyl)ethyl]amino}methyl)benzoic acid]
> 6.00	COc1ccc(CCN(Cc2ccc(C(=O)O)cc2)c2nc3cc(Cl)ccc3s2)cc1 [Example 85, 4-({(5-chloro-benzo[d]thiazol-2-yl)[2-(4-methoxyphenyl)ethyl]amino}methyl)benzoic acid]
< 5.00	COc1ccc(CCN(c2nc3cccc(F)c3s2)C(C)c2ccc(C(=O)O)cc2)cc1Br (centres unmarked) [Example 55, 4-(1-{[2-(3-bromo-4-methoxyphenyl)ethyl](7-fluorobenzo[d]thiazol-2-yl)amino}ethyl)benzoic acid]
< 5.00	CCC(c1ccc(C(=O)O)cc1)N(CCc1ccc(OC)cc1Cl)c1nc2cccc(F)c2s1 (centres unmarked) [Example 70, 4-(1-{[2-(2-chloro-4-methoxyphenyl)ethyl](7-fluorobenzo[d]thiazol-2-yl)amino}propyl)benzoic acid]
> 6.00	COc1ccc(CCN(Cc2ccc(C(=O)O)cc2Cl)c2nc3cccc(F)c3s2)cc1 [Example 78, 3-chloro-4-({(7-fluorobenzo[d]thiazol-2-yl)[2-(4-methoxyphenyl)ethyl]amino}methyl)benzoic acid]
> 6.00	COc1ccc(CCN(c2nc3cccc(F)c3s2)C(C)c2ccc(C(=O)O)cc2)c(C)c1 (centres unmarked) [Example 66, 4-(1-{(7-fluorobenzo[d]thiazol-2-yl)[2-(4-methoxy-2-methylphenyl)ethyl]amino}ethyl)benzoic acid]
5.00 to 6.00	CCNc1ccc(CCN(Cc2ccc(C(=O)O)cc2)c2nc3cccc(F)c3s2)cc1 [Example 31, 4-{[[2-(4-ethylaminophenyl)ethyl](7-fluorobenzo[d]thiazol-2-yl)amino]methyl}benzoic acid]
< 5.00	COc1ccc(CCN(c2nc3cc(Cl)ccc3s2)C(C)c2ccc(C(=O)O)cc2)cc1 (centres unmarked) [Example 107, 4-(1-{(5-chloro-benzo[d]thiazol-2-yl)[2-(4-methoxyphenyl)ethyl]amino}ethyl)benzoic acid]
< 5.00	CC(c1ccc(C(=O)O)cc1)N(CCc1ccc(F)cc1F)c1nc2cccc(F)c2s1 (centres unmarked) [Example 56, 4-(1-{[2-(2,4-difluorophenyl)ethyl](7-fluorobenzo[d]thiazol-2-yl)amino}ethyl)benzoic acid]
> 6.00	COc1ccc(CCN(Cc2ccc(C(=O)O)cc2)c2nc3ccc(N)cc3s2)cc1 [Example 81, 4-({(6-amino-benzo[d]thiazol-2-yl)[2-(4-methoxyphenyl)ethyl]amino}methyl)benzoic acid]
